Converted amounts (≈) assume the structure as drawn. Read-outs that look alike come from different tables or passages of the source. A value given as a limit tells only on which side of the number the result lay.

We go through three molecules from paper PMC9224473 (International Journal of Molecular Sciences, 2022).

Experiment [1] concerns S. pasteuri KR 4358. Description: MIC, broth microdilution, clinical strain. The format is cell-based, Staphylococcus pasteuri. The following applies: 35 °C. For orientation: Dilution methods test growth across graded concentrations, often in twofold steps.
Experiment [2] relates to S. aureus ATCC 6538. Put plainly: MIC, broth microdilution, standard strain. The format is cell-based, Staphylococcus aureus. To be noted: 35 °C.
For experiment [3], the system named is S. aureus ATCC 25923. Description: MIC, broth microdilution, standard strain. The format is cell-based, Staphylococcus aureus. To be noted: 35 °C.
The test system of experiment [4] is SW620 (human metastatic colon cancer). Put plainly: MTT cytotoxicity assay. To be noted: mean SD. The format is cell-based. As for the experimental part: (§1) The human cell lines SW480 (primary colon cancer), SW620 (lymph node metastatic colon cancer from the same patient as primary cancer cells), HCT116 (colon carcinoma), HepG2 (liver cancer), and HaCaT (immortalized keratinocytes) were obtained from the American Type Culture Collection (ATCC, Rockville, MD, USA). The SW480, SW620 and HCT116 cells were grown in MEM (ThermoSci, Waltham, MA, USA), HepG2 and HaCaT in DMEM High Glucose (Biowest SAS, Nuaillé, France) supplemented with 10% foetal bovine serum (FBS), HEPES (20 mM), and antibiotics (100 U mL^−1 of Penicillin and 100 μg mL^−1 of Streptomycin). The cells were incubated in a humidified incubator at 37 °C/5% CO2, until 80–90% confluence was reached.
The cell viability was assessed by using of MTT salt [3-(4,5-dimethylthiazol-2-yl)-2,5-diphenyltetrazolium bromide] converted by mitochondrial dehydrogenase, occurring in living cells. […] The untreated cells were used as the control.
(§2) Subsequently, the medium was removed and dimethyl sulfoxide (DMSO) with isopropanol (1:1) was added to dissolve the formazan crystals. The optical density was measured using UVM 340 reader (ASYS Hitech GmbH, Eugendorf, Austria) at a wavelength of 570 nm. The experiments were repeated three times. The cell viability was calculated as the percent of MTT reduced in treated cells versus control cells (untreated cells). The number of viable cells cultured without tested compounds was assumed as 100%. A decreased relative MTT level indicates decreased cell viability. The IC50 values were estimated using CompuSyn version 1.0.
On the technique in general: Formazan colour is commonly taken as a measure of viable cells.

Experiment [5] deals with S. epidermidis ATCC 12228. Put plainly: MIC, broth microdilution, standard strain. The format is cell-based, Staphylococcus epidermidis. To be noted: 35 °C.
Experiment [6] has as its system S. aureus T 5595. Put plainly: MIC, broth microdilution, clinical strain. The following applies: 35 °C. The format is cell-based, Staphylococcus aureus.
The test system of experiment [7] is S. aureus ATCC 29213. Description: MIC, broth microdilution, standard strain. The format is cell-based, Staphylococcus aureus. To be noted: 35 °C.
Experiment [8] concerns P. aeruginosa ATCC 15442. Description: MIC, broth microdilution, standard strain. The class given is cell-based, Pseudomonas aeruginosa. The following applies: 35 °C.
Experiment [9] deals with HaCaT (human immortal keratinocyte cell line). Description: MTT cytotoxicity assay. The class given is cell-based. The following applies: 72 h, mean SD, read-out: IC50 HaCaT (normal cells). On the procedure: as §1
(§3) The cell viability was assessed by using of MTT salt [3-(4,5-dimethylthiazol-2-yl)-2,5-diphenyltetrazolium bromide] converted by mitochondrial dehydrogenase, occurring in living cells. The cells were seeded in 96-well plates at a density of 1 × 10^4 cells per well and allowed to adhere for 24 h at 37 °C in a CO2 humidified incubator. […]. The untreated cells were used as the control.
as §2, with “After 72 h incubation, the medium was replaced with 200 µL per well of free-serum medium containing 0.5 mg mL^−1 MTT and incubated for 4 h at 37 °C in a CO2 humidified incubator. Subsequently,” for “Subsequently,”

The test system of experiment [10] is HepG2 (human liver cancer). Put plainly: MTT cytotoxicity assay. The format is cell-based. The following applies: mean SD. On the procedure: as §1, §3
as §2, with “After 72 h incubation, the medium was replaced with 200 µL per well of free-serum medium containing 0.5 mg mL^−1 MTT and incubated for 4 h at 37 °C in a CO2 humidified incubator. Subsequently,” for “Subsequently,”

Experiment [11] has as its system HCT116 (human colon cancer). Put plainly: MTT cytotoxicity assay. The format is cell-based. To be noted: mean SD. As for the experimental part: as §1, §3
as §2, with “After 72 h incubation, the medium was replaced with 200 µL per well of free-serum medium containing 0.5 mg mL^−1 MTT and incubated for 4 h at 37 °C in a CO2 humidified incubator. Subsequently,” for “Subsequently,”

In experiment [12] the test system is SW480 (human primary colon cancer). Description: MTT cytotoxicity assay. The class given is cell-based. The following applies: mean SD. On the procedure: as §1, §3
as §2, with “After 72 h incubation, the medium was replaced with 200 µL per well of free-serum medium containing 0.5 mg mL^−1 MTT and incubated for 4 h at 37 °C in a CO2 humidified incubator. Subsequently,” for “Subsequently,”

For experiment [13], the system named is E. coli 510. Description: MIC, broth microdilution, clinical strain. The class given is cell-based, Escherichia coli. To be noted: 35 °C.
The test system of experiment [14] is S. aureus NCTC 4163. Description: MIC, broth microdilution, standard strain. The format is cell-based, Staphylococcus aureus. The following applies: 35 °C.
Experiment [15] relates to E. coli 600. Description: MIC, broth microdilution, clinical strain. The format is cell-based, Escherichia coli. The following applies: 35 °C.
The test system of experiment [16] is S. epidermidis ATCC 35984. Description: MIC, broth microdilution, standard strain. The class given is cell-based, Staphylococcus epidermidis. To be noted: 35 °C.
Experiment [17] deals with P. aeruginosa 659. Description: MIC, broth microdilution, clinical strain. The class given is cell-based, Pseudomonas aeruginosa.
In experiment [18] the test system is S. epidermidis KR 4243. Put plainly: MIC, broth microdilution, clinical strain. The class given is cell-based, Staphylococcus epidermidis. The following applies: 35 °C.
The subject of experiment [19] is E. coli 520. Description: MIC, broth microdilution, clinical strain. The class given is cell-based, Escherichia coli. The following applies: 35 °C.
Experiment [20] relates to E. coli ATCC 25922. Description: MIC, broth microdilution, standard strain. The format is cell-based, Escherichia coli. The following applies: 35 °C.
The test system of experiment [21] is S. aureus T 5591. Put plainly: MIC, broth microdilution, clinical strain. The class given is cell-based, Staphylococcus aureus. The following applies: 35 °C.

For orientation: IC50 means the concentration that inhibits the measured activity by half. Regarding “1-cyclopropyl-6-fluoro-7-{4-[2-(2-isopropyl-5-methylphenoxy)acetyl]piperazin-1-yl}-4-oxo-1,4-dihydroquinoline-3-carboxylic acid [Compound 10]”, in experiment [1] (19 h), the “MIC S. pasteuri KR 4358” value came to 16 µg/mL. Also, the “MIC S. aureus ATCC 6538” value in [2] (19 h) came out at 4 µg/mL. Moreover, the “MIC S. aureus ATCC 25923” value in [3] (19 h) was found to be 4 µg/mL. The IC50 was 59 ± 1.2 µM in experiment [4] (72 h); 37.1 ± 2.1 µM in experiment [9]; 26.1 ± 0.1 µM in experiment [10] (72 h); over 100 µM in experiment [11] (72 h); 57.2 ± 2.7 µM in experiment [12] (72 h). In addition, the “MIC S. epidermidis ATCC 12228” value in experiment [5] (19 h) was determined as 8 µg/mL. Further, the “MIC S. aureus T 5595” value in [6] (19 h) is on record as 8 µg/mL. In addition, in experiment [7] (19 h), the “MIC S. aureus ATCC 29213” value is given as 4 µg/mL. Further, the “MIC P. aeruginosa ATCC 15442” value in experiment [8] (19 h) came out at 256 µg/mL. Further, in experiment [13] (19 h), the “MIC E. coli 510” value is given as over 256 µg/mL. Further, the “MIC S. aureus NCTC 4163” value in experiment [14] (19 h) is on record as 4 µg/mL. Also, the “MIC E. coli 600” value in [15] (19 h) is recorded as 64 µg/mL. Besides, the “MIC S. epidermidis ATCC 35984” value in [16] (19 h) was determined as 8 µg/mL. For the same molecule, the “MIC P. aeruginosa 659” value in [17] (19 h, 35 °C) amounted to 256 µg/mL. Further, the “MIC S. epidermidis KR 4243” value in experiment [18] (19 h) amounted to 16 µg/mL. Also, in experiment [19] (19 h), the “MIC E. coli 520” value is listed as 64 µg/mL. The “MIC E. coli ATCC 25922” value in [20] (19 h) amounted to 32 µg/mL. Moreover, the “MIC S. aureus T 5591” value in [21] (19 h) worked out at 8 µg/mL.
Consider `O=C(O)c1cn(C2CC2)c2cc(N3CCNCC3)c(F)cc2c1=O` [Ciprofloxacin, reference compound], for which the IC50 in experiment [4] (Homo sapiens, SW-620, 72 h) was over 100 µM; in [9] (Homo sapiens, HaCaT) it was over 100 µM; in [10] (Homo sapiens, HepG2, 72 h), over 100 µM; in experiment [11] (Homo sapiens, HCT-116, 72 h), over 100 µM; in [12] (Homo sapiens, SW480, 72 h), over 100 µM.
As a reminder, the MIC is the smallest concentration in the dilution series that meets the test's criterion for growth inhibition. In the case of `CC(C)[C@@H]1CC[C@@H](C)C[C@H]1OCC(=O)N1CCN(c2cc3c(cc2F)c(=O)c(C(=O)O)cn3C2CC2)CC1` [Compound 1, 1-cyclopropyl-6-fluoro-7-{4-[2-((1R,2S,5R)-2-isopropyl-5-methylcyclohexyloxy)acetyl]piperazin-1-yl}-4-oxo-1,4-dihydroquinoline-3-carboxylic acid], the MIC worked out at 8 µg/mL (≈ 15.2 µM) in experiment [1] (Staphylococcus pasteuri, KR4358, 19 h); 4 µg/mL (≈ 7.58 µM) in [2] (Staphylococcus aureus, ATCC6538, 19 h); 4 µg/mL (≈ 7.58 µM) in experiment [3] (Staphylococcus aureus, ATCC25923, 19 h); 4 µg/mL (≈ 7.58 µM) in experiment [5] (Staphylococcus epidermidis, ATCC12228, 19 h); 8 µg/mL (≈ 15.2 µM) in experiment [6] (Staphylococcus aureus, T5595, 19 h); 4 µg/mL (≈ 7.58 µM) in experiment [7] (Staphylococcus aureus, ATCC29213, 19 h). The MIC is over 256 µg/mL in experiment [8] (Pseudomonas aeruginosa, ATCC15442, 19 h); over 256 µg/mL in [13] (Escherichia coli, 510, 19 h); 2 µg/mL (≈ 3.79 µM) in experiment [14] (Staphylococcus aureus, NCTC4163, 19 h); 32 µg/mL (≈ 60.6 µM) in experiment [15] (Escherichia coli, 600, 19 h); 2 µg/mL (≈ 3.79 µM) in experiment [16] (Staphylococcus epidermidis, ATCC35984, 19 h); over 256 µg/mL in [17] (Pseudomonas aeruginosa, 659, read-out: MIC P. aeruginosa 659, 19 h, 35 °C). Also, the MIC was 8 µg/mL (≈ 15.2 µM) in experiment [18] (Staphylococcus epidermidis, KR4243, 19 h); 32 µg/mL (≈ 60.6 µM) in experiment [19] (Escherichia coli, 520, 19 h); 32 µg/mL (≈ 60.6 µM) in experiment [20] (Escherichia coli, ATCC25922, 19 h); 4 µg/mL (≈ 7.58 µM) in experiment [21] (Staphylococcus aureus, T5591, 19 h). For the same molecule, the IC50 in [4] (Homo sapiens, SW-620, 72 h) is 28.1 ± 2.1 µM; in experiment [9] (Homo sapiens, HaCaT), 21.7 ± 0.8 µM; in experiment [10] (Homo sapiens, HepG2, 72 h) it was 23.1 ± 0.2 µM; in [11] (Homo sapiens, HCT-116, 72 h) it was 34.9 ± 1.4 µM; in [12] (Homo sapiens, SW480, 72 h), 39.9 ± 4.5 µM.
